Reference: the OPERA property sets (Mansouri et al. 2018)

Compound | logP
Nc1nc(N)nc(-c2cc(Br)ccc2F)n1 | 1.94
CN(C)C(=O)Cc1ccsc1 | 0.65
O=[N+]([O-])c1cccc(C2NCCS2)c1 (stereo unspecified) | 1.59
Cc1ccccc1NC(=O)CN1CCCCC1 | 2.26
COc1ccc(Cc2cnc(N)nc2N)cc1I | 2.09
C=CCC1(C2=CCCC2)C(=O)NC(=O)N(C)C1=O (stereo unspecified) | 1.89
CCCCN(C)CCS(=O)(=O)c1cc(OC)c(OC)c(OC)c1 | 2.05
C#CCN(C)N=Nc1nc[nH]c1C(N)=O | 0.33
CC1=Nc2c(I)cc(Cl)cc2S(=O)(=O)N1 | 1.81
COc1cc(OC)nc(-n2[nH]c(=O)cc2C)n1 | 1.16
COC(=O)C(C#N)=NNc1ccccc1C(F)(F)F | 3.7
CN(C)/N=N/c1ccccc1Cl | 3.03
CN(N=O)C(=O)N(C)c1ccccc1 | 1.58
O=C(O)COc1cccc(S(=O)(=O)C(F)(F)F)c1 | 2.19
Nc1cccc(OC(=O)CNC(=O)c2ccccc2)c1 | 1.3
O=CNC=Cc1ccccc1 | 1.95
CCOC(=O)CN(C(=O)CCl)c1ccccc1 | 1.6
COc1ccc(NS(=O)(=O)C(F)(F)F)cc1 | 3
COc1ccc(Cc2cnc(N)nc2N)cc1Br | 1.88
CCOC(=O)c1cnc2ccccn2c1=O | 0.25
CCNC(=O)CNC(=O)C=[N+]=[N-] | -0.62
Cc1cc2c(cc1Cc1cnc(N)nc1N)OCO2 | 1.89

Compound | logP
CCCCNC(=O)NN | -0.6
CCOC(=O)CN(C(=O)CCl)c1ccccc1CC | 2.57
CC(=O)Nc1ccccc1C(C)=O | 1.5
Cn1nnnc1Sc1ccccc1 | 1.63
COc1cc(Cc2cnc(N)nc2N)cc(OC)c1C#N | 1.39
CCc1nnc(SC)n(N)c1=O | 0.46
O=C(O)CCN1C(=O)C=CC1=O | 0.04
COc1ccccc1C(=O)NCCCCN | 0.58
COc1cc(Cc2cnc(N)nc2N)ccc1Cl | 1.87
OCC1OC(Oc2ccc(I)c(OC3OC(CO)C(O)C(O)C3O)c2I)C(O)C(O)C1O (stereo unspecified) | -1.31
Cc1ccccc1C(=N)c1ccccc1C | 3.31
O=C(O)c1ccccc1Nc1cccc(O)c1 | 3.49
OCC1OC(OC2CCCCC2)C(O)C(O)C1O (stereo unspecified) | -0.63
CC1=Nc2ccc(C)cc2S(=O)(=O)N1 | 0.81
Clc1ccc(-c2ccc(Cl)cc2Cl)cc1 | 5.62
CCCCCCNC(=O)CNC(=O)C=[N+]=[N-] | 1.51
NNC(=O)c1ccc2ncccc2c1 | 0.35
CCCCO[N+](=O)[O-] | 2.15
CCCCOC(=O)N(CCCC)SN(C)C(=O)ON=C(C)SC | 4.2
COP(=O)(NCC(C)C)SC (stereo unspecified) | 0.97
CCOC(=O)C(=Cc1ccccc1OC)C(=O)OCC | 3.29
O=C(CN1CCCCC1)Nc1ccc(Cl)cc1 | 3.34

Compound | logP
COC12C(COC(N)=O)C3=C(C(=O)C(C)=C(Nc4nccs4)C3=O)N1CC1NC12 (stereo unspecified) | 0.62
COc1ccc(Cc2cnc(N)nc2N)cc1Nc1ccccc1 | 2.88
NC(=O)CCCn1nnc2ccccc21 | 0.37
C=CCOCC(O)Cn1ccnc1[N+](=O)[O-] (stereo unspecified) | 0.4
CC(=O)N=C1SC(=Cc2ccc([N+](=O)[O-])o2)C(=O)N1C | 1.21
COC12C(COC(N)=O)C3=C(C(=O)C(C)=C(Nc4cccnc4)C3=O)N1CC1NC12 (stereo unspecified) | 0.52
CNC(=O)C1CCCN1C(C)=O (stereo unspecified) | -1.19
CCOc1ccc(OC(C)=O)cc1 | 1.95
C=Cc1cnc([N+](=O)[O-])n1C | 0.64
N#Cc1ccc(NC(=O)N=C(N)N)cc1Cl | 1.9
COc1ccc(CC(C)N)c(OC)c1 (stereo unspecified) | 1.75
O=NN(CCCl)C(=O)NC1CCCCC1O (stereo unspecified) | 1.75
CN(C)CCc1cccs1 | 1.99
CNC(=O)Oc1cccc([N+](=O)[O-])c1 | 1.39
CN(C)CCN(Cc1ccc(C(C)(C)C)cc1)c1ccccc1 | 5.34
Nc1nc(N)nc(-c2cc(Cl)ccc2Cl)n1 | 1.97
O=[N+]([O-])c1cc2nc(C(F)(F)F)[nH]c2cc1Cl | 3.21
CCOP(=O)(OCC)Oc1ccc(SC)c(C)c1 | 3.28
Cc1ccccc1C(=N)c1ccccc1 | 3.21
CSC(C)=NOC(=O)N(C)SN(C)C(=O)c1c(Cl)cccc1Cl | 2.6
CC1CN(C(=O)c2ccccc2)CC(C)N1N=O (stereo unspecified) | 1.04
COc1cc(Cl)c(NC2=NCCN2)c(Cl)c1 | 1.6

Compound | logP
C=CCc1c(OCC)cc(Cc2cnc(N)nc2N)cc1OCC | 3.08
CCc1ccccc1N1C(=O)CCC1=O | 0.64
CCC[n+]1cccc2ccccc21.[Br-] | -2.52
CSc1nnc(CCC(C)C)c(=O)n1N | 1.85
CC1CN(N=O)CC(C)N1N=O (stereo unspecified) | 0.08
CCCC(CO)n1cnc2c(N)ncnc21 (stereo unspecified) | 0.66
CCOP(=S)(OCC)Oc1ccc(S(C)(=O)=O)cc1 | 2.56
CC(=O)c1ccccc1NCCO | 1.59
CS(=O)(=O)Oc1ccccc1Cc1cnc(N)nc1N | 0.71
CSCN1C(=O)CN=C(c2ccccc2)c2cc(Cl)ccc21 | 3.32
CCOc1cc(Cc2cnc(N)nc2N)cc(OCC)c1C(=O)CS(C)(=O)=O | 0.79
N#Cc1ccc(NS(=O)(=O)c2ccc(N)cc2)cc1 | 1.83
COC(=O)C(C#N)=NNc1ccc(Cl)c(C(F)F)c1 | 3.8
NC1CC2CC1c1cc(C(F)(F)F)ccc12 (stereo unspecified) | 3.19
CC1(C)SC2C(NC(=O)C(O)c3ccccc3)C(=O)N2C1C(=O)O (stereo unspecified) | 1.4
CCCCCOn1c(=O)[nH]c(C)c(Br)c1=O | 1.69
CCCCCC(=O)N[C@@H]1C(=O)N2[C@@H]1SC(C)(C)[C@@H]2C(=O)O | 2.37
CN(C)N=Nc1ccc(C#N)cc1 | 2.39
CCOC(=O)C(=Cc1ccc(C)cc1)C(C)=O | 2.63
CO[C@@]12[C@@H]3N[C@@H]3CN1C1=C(C(=O)C(Nc3nc(C)c(C)s3)=C(C)C1=O)[C@@H]2COC(N)=O | 1.29
O=C1CN=C(c2ccccc2)c2cc([N+](=O)[O-])ccc2N1CC(O)CO (stereo unspecified) | 0.96
CSCN1C(=O)CN=C(c2ccccc2)c2cc(N)ccc21 | 1.92

Compound | logP
Cc1ccccc1OC1OC(CO)C(O)C(O)C1O (stereo unspecified) | -0.16
O=C(COc1ccc(Cl)cc1)NNCc1ccccc1 | 2.92
CON(C)C(=O)Nc1cccc(OCc2ccccc2)c1 | 3.11
O=C(CN1CCCCC1)Nc1cccc(Cl)c1 | 3.45
COc1ccccc1C(=O)NCCCN(C)C | 1.27
Cc1ccc(CN(C)N=Nc2ccc(C(=O)O)cc2)cc1 | 4.75
O=C1CCC(=O)N1c1cccc(Cl)c1 | 0.98
N#Cc1ccc(C=CNC=O)cc1 | 1.62
CC(=O)c1ccccc1NC(=O)C(Cl)Cl | 2.65
O=C(O)Cc1ccc(S(=O)(=O)F)cc1 | 1.86
CC12CCC(=O)C=C1C1(CC1)CC1C2CCC2(C)C1CCC21CCC(=O)O1 (stereo unspecified) | 3.15
O=NN(CCCl)C(=O)NC12CC3CC(CC(C3)C1)C2 | 3.56
CN1C(=O)C(=Cc2ccc([N+](=O)[O-])o2)SC1=S | 1.06
COc1cc(Cc2cnc(N)nc2N)ccc1OCc1ccccc1 | 2.66
CCCCCNc1ccc(C(=O)OCCN(C)C)cc1 | 4.14
CC(=O)c1ccc(N2C(N)=NC(N)=NC2(C)C)cc1 | -0.04
COc1ccc(OC2OC(CO)C(O)C(O)C2O)cc1 (stereo unspecified) | -0.73
CCc1cccc(CC)c1NC1=NCCN1 | 2.48
